Changes are numbered by the printed parent chain. Like-named read-outs stand apart in the source and are kept apart here.
Assays:
CpomOrco+OR3 = target: T1, CpomOrco+OR3 (Cydia pomonella, UniProt H9A5M3); test: Calcium imaging of HEK293T cells co-expressing CpomOrco and CpomOR3, pear ester stimulation; assay type: cell-based
T1 sequence (H9A5M3 1-426): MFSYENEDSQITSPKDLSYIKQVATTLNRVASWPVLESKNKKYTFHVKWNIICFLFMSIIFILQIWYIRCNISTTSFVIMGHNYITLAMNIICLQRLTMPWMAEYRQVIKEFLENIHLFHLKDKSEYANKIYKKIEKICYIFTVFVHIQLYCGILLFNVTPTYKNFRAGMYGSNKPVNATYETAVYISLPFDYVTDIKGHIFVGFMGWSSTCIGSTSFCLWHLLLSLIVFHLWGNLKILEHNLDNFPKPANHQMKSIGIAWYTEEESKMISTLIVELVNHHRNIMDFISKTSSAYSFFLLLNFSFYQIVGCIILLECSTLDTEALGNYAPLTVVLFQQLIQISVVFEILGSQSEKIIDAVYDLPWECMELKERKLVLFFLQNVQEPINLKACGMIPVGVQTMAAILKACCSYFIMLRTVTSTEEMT
T1 sequence (H9A5M2 1-473 partner): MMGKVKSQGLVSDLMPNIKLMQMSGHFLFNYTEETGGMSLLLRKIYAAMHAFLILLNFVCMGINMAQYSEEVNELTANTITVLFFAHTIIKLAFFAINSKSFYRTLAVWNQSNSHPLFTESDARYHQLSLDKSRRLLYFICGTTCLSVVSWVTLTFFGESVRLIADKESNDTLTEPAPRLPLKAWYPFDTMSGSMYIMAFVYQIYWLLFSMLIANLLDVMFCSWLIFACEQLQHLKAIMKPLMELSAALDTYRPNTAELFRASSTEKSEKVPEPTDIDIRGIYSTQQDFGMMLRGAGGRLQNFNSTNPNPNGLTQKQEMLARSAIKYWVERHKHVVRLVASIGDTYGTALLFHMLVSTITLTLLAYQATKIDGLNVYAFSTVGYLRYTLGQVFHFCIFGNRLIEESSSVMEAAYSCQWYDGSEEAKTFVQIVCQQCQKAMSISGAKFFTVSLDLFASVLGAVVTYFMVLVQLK
Description: (§1) HEK293 cells lines (HEK293A/HEK293T) were grown in HEK cell media [Dulbecco's modified Eagle's medium containing 10% fetal bovine serum (MP Biomedicals, Solon, OH, USA), 2.0 mM L-glutamine, and 100 µg/mL penicillin/streptomycin (Invitrogen)] at 37 °C and 5% CO2. To test transient expression of wild type CpomOrco and CpomOrco^Q417H variant for calcium imaging and patch-clamp recording, 35-mm petri dishes containing semi-confluent HEK293A cells were transiently transfected. Cells were transfected with 0.6 µg of pcDNA40-DEST carrying the coding sequence of the CpomOrco variant (depending on the experiments). To report expression for calcium imaging experiments, 0.6 µg of a separate plasmid DNA [pEBFP2-Nuc, a gift from Robert Campbell (Addgene plasmid # 1489352)] carrying the coding sequence for a blue fluorescent protein (EBFP) was co-transfected. To report expression in patch-clamp recordings, 1.0 µg of a separate plasmid DNA (pXOOM, Clontech, Mountain View, CA, USA) carrying the coding sequence for a green fluorescent protein (GFP) was co-transfected. Expressions of fluorescent reporter genes were under the regulation of the same promoter for Cpom-genes (CMV). For specific experiments, co-transfections were conducted combining an additional 1.2 µg of pcDNA40-DEST/CpomOR3 or pcDNA40-DEST/CpomOR6a, as we previously described. Co-transfections with CpomOR3 were performed for dose–response experiments to pear ester: CpomOR3 was co-expressed with CpomOrco variants by the use of HEK293T (Fig. 3b); given the reported functional co-expression data of the CpomOrco + OR3 heteromers by the use of these specific cells. In brief, transfection DNAs were dissolved in 100 µL sterile DMEM, mixed with 3.0 µL Calfectin (SignaGen, Rockville, MD, USA) following the recommended protocol. Transfections were conducted overnight for up to 18 h, HEK cell media was replaced with 2.0 mL fresh media to incubate cells at 37 °C for up to 6–8 h, at which point part of the cell culture was spread in the middle of a 35-mm plate as individual cells or small clusters and rinsed at the sides with 2.0 mL fresh HEK media. After splitting, cells were allowed to recover for at least 1 day prior to calcium imaging. […]
(§2) Fluorescence imaging was performed using settings optimized for Imaging Workbench 6 software (INDEC BioSystems, Santa Clara, CA, USA)[14]. […] Each cell was assigned a region of interest (ROI) and changes in fluorescence intensity within each ROI were measured and expressed as the fractional change in fluorescence intensity (dF). Stored time series image stacks were analysed off-line using Imaging Workbench 6, Clampfit 10.5 (Molecular Devices) and SigmaPlot 11 (Systat Software Inc., San Jose, CA, USA). […]

CpomOrco^Q417H+OR3 = target: T2, CpomOrco^Q417H+OR3 (Cydia pomonella, UniProt H9A5M3); test: Calcium imaging of HEK293T cells co-expressing CpomOrco^Q417H and CpomOR3, pear ester stimulation; assay type: cell-based
T2 construct: variant as stated: Q417H
T2 sequence (H9A5M3 1-426): T1 sequence (H9A5M3 1-426)
T2 sequence (H9A5M2 1-473 Q417H partner): T1 sequence (H9A5M2 1-473 partner) with Q417H
Description: as §1, §2

CCCCC/C=C\C=C\C(=O)OCC [pear ester, ethyl (E,Z)-2,4 decadienoate]
Hill coefficient (cooperativity coefficient h) (CpomOrco+OR3): ~ 4.6
EC50 (CpomOrco+OR3; Hill fit): ~210 µM
maximum response (Hill fit of calcium response amplitudes) (CpomOrco+OR3; N = 160 cells): ~ 6.6 ± 0.3 ∆F
Hill coefficient (cooperativity coefficient h) (CpomOrco+OR3; listed as Pear ester): ~ 4.6 ± 2.4
Hill coefficient (cooperativity coefficient h) (CpomOrco^Q417H+OR3): ~ 4.6
EC50 (CpomOrco^Q417H+OR3; Hill fit): ~733 µM
maximum response (Hill fit of calcium response amplitudes) (CpomOrco^Q417H+OR3; N = 262 cells): ~3.7 ± 0.1 ∆F
Hill coefficient (cooperativity coefficient h) (CpomOrco^Q417H+OR3; listed as Pear ester): ~ 4.6 ± 0.4
